# Measured values taken from ChEMBL document CHEMBL4000146, “Synthesis, antiplasmodial activity and mechanistic studies of pyrimidine-5-carbonitrile and quinoline hybrids” (Eur J Med Chem, 2015).
# Activity calls are given as the source filed them. No cut-off for these calls is given here.
# Tests used:
# Sindbis virus = assay type: functional; conditions: Vero
# unidentified adenovirus = assay type: functional, cell-based; conditions: HEL
# Coxsackievirus [1] = assay type: functional; conditions: B4, Vero
# [2] = test system: Vesicular stomatitis virus; test: microbe, parasite or virus in culture; conditions: HEL
# Human alphaherpesvirus 1 [3] = assay type: functional, cell-based; conditions: Human alphaherpesvirus 1, KOS, HEL
# Plasmodium falciparum [4] = test: microbe, parasite or virus in culture; conditions: Dd2
# [5] = Cytotoxicity against human HeLa cells assessed as alteration of normal cell morphology by microscopic analysis; assay type: cell-based
# Human betaherpesvirus 5 [6] = assay type: functional, cell-based; conditions: Human betaherpesvirus 5, Davis, HEL
# HeLa = test: Cytotoxicity against human HeLa cells assessed as inhibition of cell proliferation by Coulter counter analysis; assay type: cell-based
# Human orthopneumovirus = assay type: functional, cell-based; conditions: human respiratory syncytial virus, HeLa
# CCRF-CEM = test: Cytotoxicity against human CEM cells assessed as inhibition of cell proliferation by Coulter counter analysis; assay type: cell-based
# Coxsackievirus [7] = assay type: functional, cell-based; conditions: B4, HeLa
# [8] = Cytotoxicity against human HEL cells assessed as alteration of normal cell morphology by microscopic analysis; assay type: cell-based
# [9] = test system: Vesicular stomatitis virus; test: microbe, parasite or virus in culture; conditions: HeLa
# [10] = Cytotoxicity against MDCK cells assessed as alteration of normal cell morphology by microscopic analysis; assay type: cell-based, Canis lupus familiaris; conditions: dog
# Influenza A virus [11] = test: microbe, parasite or virus in culture; conditions: H3N2, MDCK
# L1210 = test: Cytotoxicity against mouse L1210 cells assessed as inhibition of cell proliferation by Coulter counter analysis; assay type: cell-based
# Human alphaherpesvirus 3 [12] = assay type: functional, cell-based; conditions: Human alphaherpesvirus 3, strain Oka vaccine, HEL
# Punta Toro virus = assay type: functional; conditions: Vero
# Human respirovirus 3 = assay type: functional; conditions: Human respirovirus 3, Vero
# Human betaherpesvirus 5 [13] = assay type: functional, cell-based; conditions: Human betaherpesvirus 5, AD169, HEL
# Influenza A virus [14] = test: microbe, parasite or virus in culture; conditions: H1N1, MDCK
# Human alphaherpesvirus 3 [15] = assay type: functional, cell-based; conditions: Human alphaherpesvirus 3, 07-1, HEL
# [16] = Cytotoxicity against MDCK cells assessed as inhibition of cell viability by colorimetric formazan-based MTS assay; parameters: species or system Canis lupus familiaris; conditions: dog
# [17] = test system: Mammalian orthoreovirus 1; assay type: functional; conditions: Mammalian orthoreovirus 1, Vero
# Human alphaherpesvirus 2 = assay type: functional, cell-based; conditions: Human alphaherpesvirus 2, G, HEL
# Heme = test: Binding affinity to monomeric heme (unknown origin) assessed as monomeric heme-compound complex formation up to 37.3 uM by UV-visible absorption spectrophotometry
# Plasmodium falciparum [18] = test: Resistance index, ratio of IC50 for chloroquine-resistant asexual intraerythrocytic stage of Plasmodium falciparum Dd2 to IC50 for chloroquine-sensitive asexual intraerythrocytic stage of Plasmodium falciparum NF54; assay type: functional
# [19] = Selectivity index, ratio of IC50 for human HeLa cells to IC50 for chloroquine-sensitive asexual intraerythrocytic stage of Plasmodium falciparum NF54; assay type: toxicity, cell-based; conditions: read-out: Ratio IC50
# Human alphaherpesvirus 1 [20] = assay type: functional, cell-based; conditions: Human alphaherpesvirus 1, KOS, HEL; remark: listed apart in the source
# [21] = Cytotoxicity against human HEL cells assessed as inhibition of cell viability by colorimetric formazan-based MTS assay
# Influenza B virus = test: microbe, parasite or virus in culture; conditions: MDCK
# [22] = Selectivity index, ratio of IC50 for human HeLa cells to IC50 for chloroquine-resistant asexual intraerythrocytic stage of Plasmodium falciparum Dd2; assay type: toxicity, cell-based; conditions: read-out: Ratio IC50
# [23] = Cytotoxicity against african green monkey Vero cells assessed as alteration of normal cell morphology by microscopic analysis; assay type: cell-based; conditions: chlorocebus sabaeus
# Vaccinia virus = test: microbe, parasite or virus in culture; conditions: Orthopoxvirus vaccinia, HEL
# Plasmodium falciparum [24] = test: microbe, parasite or virus in culture; conditions: NF54
compound,measurement,setting,value
CSc1nc(-c2ccccc2)c(C#N)c(N2CCN(c3ccnc4cc(Cl)ccc34)CC2)n1,EC50,Sindbis virus,> 100 µM
same,EC50,unidentified adenovirus,> 100 µM
same,EC50,Coxsackievirus [1],> 100 µM
same,EC50,[2],> 100 µM
same,EC50,Human alphaherpesvirus 1 [3],> 100 µM
same,IC50,Plasmodium falciparum [4],212 µM
same,MCC,[5],> 100 µM
same,EC50,Human betaherpesvirus 5 [6],> 100 µM
same,IC50,HeLa,> 250 µM
same,EC50,Human orthopneumovirus,> 100 µM
same,IC50,CCRF-CEM,> 250 µM
same,EC50,Coxsackievirus [7],> 100 µM
same,MCC,[8],≥ 100 µM
same,EC50,[9],> 100 µM
same,MCC,[10],> 100 µM
same,EC50,Influenza A virus [11],> 100 µM
same,IC50,L1210,> 250 µM
same,EC50,Human alphaherpesvirus 3 [12],> 100 µM
same,EC50,Punta Toro virus,> 100 µM
same,EC50,Human respirovirus 3,> 100 µM
same,EC50,Human betaherpesvirus 5 [13],> 20 µM
same,EC50,Influenza A virus [14],> 100 µM
same,EC50,Human alphaherpesvirus 3 [15],> 100 µM
same,CC50,[16],> 100 µM
same,EC50,[17],> 100 µM
same,EC50,Human alphaherpesvirus 2,> 100 µM
same,Activity,Heme,inactive
same,Ratio IC50,Plasmodium falciparum [18],1.6
same,selectivity ratio,[19],> 1.9
same,EC50,Human alphaherpesvirus 1 [20],> 100 µM
same,CC50,[21],> 100 µM
same,EC50,Influenza B virus,> 100 µM
same,selectivity ratio,[22],> 1.1
same,MCC,[23],> 100 µM
same,EC50,Vaccinia virus,> 100 µM
same,IC50,Plasmodium falciparum [24],132 µM
